Data as given in patent US8309299B2, “Combination therapy and method for assessing resistance to treatment” (Hoffmann-La Roche Inc., priority 2010, dated 2012).

Legend:
[1] = test system: 1:1 mixture of A549 overexpressing IL6 or IL8 (xenograft); assay: in vivo activity in xenograft of 1:1 mixture of IL6- and IL8-overexpressing A549 cells; set-up: species or system human; conditions: Example 5; tumors from 1:1 mixture of A549 overexpressing IL6 or IL8; 10 mg/kg once daily; after 21 days
Description: (§1) IL6 and IL8 lentiviruses were made using IL6 and IL8 plasmids (available from Genecopoeia, Rockville, Md., USA), respectively. A549 cells were divided into three groups with one group receiving a vector control, one group being infected with the IL6 lentivirus and the third group being infected with the IL8 lentivirus. The later two groups formed cell pools with stable expression of exogenous IL6 and IL8, respectively.
A portion of the IL6 overexpressing A549 cells and the IL8 overexpressing A549 cells were then combined to form a fourth group containing a 1:1 mixture of such cells.
(§2) Cells from the aforementioned four groups and parental A549 and H460a cells were used to make xenograft models using the procedure described in Example 1. […]

[2] = test system: AsPC-1 (pancreatic) xenograft; assay: in vivo activity in AsPC-1 xenograft model; set-up: species or system human; conditions: AsPC-1 (pancreatic) xenograft in nude mice; 10 mg/kg daily po; 21 days following commencement of treatment
Experimental: (§3) Female nu/nu (nude) mice obtained from Charles River Laboratories (Wilmington, Mass.) or female SCID-beige mice (Taconic, Germantown, N.Y.) were used (10 mice/group) when they were approximately 8 to 14 weeks old and weighed approximately 23 to 25 grams. All animal experiments were performed in accordance with protocols approved by the Roche Animal Care and Use Committee (RACUC).
(§4) The human cancer cell lines LOVO, BxPC3, HCT-116, A549, AsPC-1, MiaPaCa-2, and Calu-6 were purchased from the American Type Culture Collection. The H460a cell line was a gift from Dr. Jack Roth (M. D. Anderson Medical Center).
(§5) For xenograft implantation, cells were harvested using 0.05% trypsin, washed and centrifuged in culture medium, and resuspended in either a 1:1 mixture of phosphate buffered saline (PBS) and Matrigel (BxPC-3) or PBS alone (A549, H460a, LOVO, Calu-6, HCT-116, MiaPaca-2, and AsPC-1) at a concentration of 1.5-5×10^7 cells per mL. […]
(§6) Tumor measurements and mouse weights were taken twice per week. Statistical analysis was determined by Mann-Whitney Rank Sum Test, 1-way ANOVA, and post hoc Bonferroni t-test (SigmaStat, version 2.0, Jandel Scientific, San Francisco, Calif.). […]
(§7) Tumor growth inhibition (TGI %) was measured 21 days following the commencement of the treatment.

H460a (NSCLC) xenograft = assay: in vivo activity in H460a xenograft model; set-up: species or system human
Experimental: as §3, §4
For xenograft implantation, cells were harvested using 0.05% trypsin, washed and centrifuged in culture medium, and resuspended in either a 1:1 mixture of phosphate buffered saline (PBS) and Matrigel (BxPC-3) or PBS alone (A549, H460a, LOVO, Calu-6, HCT-116, MiaPaca-2, and AsPC-1) at a concentration of 1.5-5×10^7 cells per mL. A volume of 0.2 mL cell suspension (7.5×10^6 cells for A549, 1×10^7 cells for H460a, 3×10^6 cells for Calu-6 and HCT116, 5×10^6 cells for BxPC3 and AsPC-1, 6×10^6 cells for MiaPaca-2, and 5×10^6 for LOVO) per mouse was implanted subcutaneously in the right flank. All xenograft models were implanted into nude mice with the exception of BxPC3, which was implanted into SCID-beige mice. Tumors were allowed to grow for 8 to 26 days post implant when mean volume reached ˜100-150 mm^3, after which animals were randomized into treatment groups.
Compound I (synthesized according to the procedure described in WO2005/023772) was formulated as a suspension in 1.0% Klucel in water with 0.2% Tween®-80 for oral (po) administration. Formulated compound and vehicle were prepared weekly and stored at 4° C. In the Calu-6 xenograft model, Compound I was dosed at 60 mg/kg daily every other week for 4 weeks (7+/7−×2 cycles). All other xenograft models were dosed with Compound I at 10 mg/kg daily.
Tumor measurements and mouse weights were taken twice per week. Statistical analysis was determined by Mann-Whitney Rank Sum Test, 1-way ANOVA, and post hoc Bonferroni t-test (SigmaStat, version 2.0, Jandel Scientific, San Francisco, Calif.). Differences between groups were considered significant when the probability value (p) was ≦0.05.
as §7, §2

[3] = test system: A549 cells overexpressing IL6 (xenograft); assay: in vivo activity in IL6-overexpressing A549 xenograft model; set-up: species or system human; conditions: Example 5, 10 mg/kg once daily, after 21 days
Description: as §1, §2

[4] = test system: HCT-116 (colon) xenograft; assay: in vivo activity in HCT-116 xenograft model; set-up: species or system human; conditions: HCT-116 (colon) xenograft in nude mice; 10 mg/kg daily po; 21 days following commencement of treatment
Experimental: as §3, §4, §5, §6, §7

[5] = test system: genes associated with angiogenesis; conditions: Luistro et al., Cancer Research 69:7672-80 (2009), cited from earlier work
[6] = test system: A549 vector control tumors; assay: in vivo activity in A549 vector control xenograft model; set-up: species or system human; conditions: Example 5, 10 mg/kg once daily, after 21 days
Description: as §1, §2

A549 (NSCLC) xenograft = assay: in vivo activity in A549 xenograft model; set-up: species or system human
Experimental: as §3, §4, §5, §6
Tumor growth inhibition (TGI %) was measured 21 days following the commencement of the treatment. […]

[7] = test system: BxPC3 (pancreatic) xenograft; assay: in vivo activity in BxPC3 xenograft model; set-up: species or system human; conditions: BxPC3 (pancreatic) xenograft in SCID-beige mice; 10 mg/kg daily po; 21 days following commencement of treatment
Experimental: as §3, §4, §5, §6, §7

[8] = test system: A549 cells overexpressing IL8 (xenograft); assay: in vivo activity in IL8-overexpressing A549 xenograft model; set-up: species or system human; conditions: Example 5, 10 mg/kg once daily, after 21 days
Description: as §1, §2

Hes1 mRNA = assay: downregulation of Hes1 mRNA following in vitro treatment (Notch signaling blockage); format: cell-based, human
Description: Expression of IL6 and IL8 was then quantified in the BxPC3, HCT-116, A549, AsPC-1, MiaPaCa-2, and Calu-6 cell lines by measuring the level of mRNA using qRT-PCR. RNA isolation, and reverse transcription-PCR (RT-PCR) were done using standard laboratory techniques. The catalogue numbers for each probe set were Hes1 (Hs00172878_ml), ACTB (4333762F), IL6 (Hs00174131_ml), IL8 (Hs00174103_ml) and 18S (4319413E).

[9] = test system: U87MG (glioblastoma) xenograft; assay: in vivo activity in U87MG xenograft model; set-up: species or system human; conditions: U87MG xenograft in nude mice; 10 mg/kg once daily for 21 days
Experimental: (§8) The human cancer cell lines U87MG and LOX were purchased from the American Type Culture Collection. Xenografts were implanted in female nu/nu (nude) mice obtained from Charles River Laboratories (Wilmington, Mass.) (10 mice/group) when they were approximately 8 to 14 weeks old and weighed approximately 23 to 25 grams. All animal experiments were performed in accordance with protocols approved by the Roche Animal Care and Use Committee (RACUC). For xenograft implantation, cells were harvested using 0.05% trypsin, washed and centrifuged in culture medium, and resuspended in either a 1:1 mixture of phosphate buffered saline (PBS) and Matrigel (U87MG) or PBS alone (LOX) at a concentration of 1.5-5×10^7 cells per mL. A volume of 0.2 mL cell suspension (5×10^6 cells for U87MG, 2×10^6 cells for LOX) per mouse was implanted subcutaneously in the right flank. Tumors were allowed to grow for 8 to 26 days post implant when mean volume reached ˜100-150 mm^3, after which animals were randomized into treatment groups: U87MG xenograft mice receiving vehicle (Klucel and Tween) once daily, U87MG xenograft mice receiving Compound I at 10 mg/kg once daily for 21 days, LOX xenograft mice receiving vehicle (Klucel and Tween) once daily, and LOX xenograft mice receiving Compound I at 10 mg/kg once daily for 11 days.

LOVO (colon) xenograft = assay: in vivo activity in LOVO xenograft model; set-up: species or system human; conditions: LOVO (colon) xenograft in nude mice; 10 mg/kg daily po; 21 days following commencement of treatment
Experimental: as §3, §4, §5, §6, §7

Calu-6 (NSCLC) xenograft = assay: in vivo activity in Calu-6 xenograft model; set-up: species or system human; conditions: Calu-6 (NSCLC) xenograft in nude mice; 60 mg/kg daily every other week for 4 weeks (7+/7- x 2 cycles) po; 21 days following commencement of treatment
Experimental: as §3, §4, §5, §6, §7

[10] = test system: IL8-knockdown H460a xenograft; assay: in vivo activity in IL8-knockdown H460a xenograft model; set-up: species or system human; conditions: Example 6; IL8-knockdown H460a tumors; 10 mg/kg once daily for 21 days
Description: Lentiviruses were made using pLKO.1-based anti-IL8 shRNA (purchased from Open Biosystems) and used to stably knockdown IL8 expression in H460a cells. […] IL8-knockdown H460a cells, however, still had more than 2-fold higher IL8 levels compared to A549 cells.
Parental H460a cells and IL8-knockdown H460a cells were then implanted as xenografts in mice using the procedures described in Example 1. The mice were then randomized into different treatment groups (10 mice/group): H460a xenograft mice receiving vehicle once daily, H460a xenograft mice receiving Compound I at 10 mg/kg once daily, IL8-knockdown H460a xenograft mice receiving vehicle once daily, and IL8-knockdown H460a xenograft mice receiving Compound I at 10 mg/kg once daily.

LOX (melanoma) xenograft = assay: in vivo activity in LOX xenograft model; set-up: species or system human; conditions: LOX xenograft in nude mice; 10 mg/kg once daily for 11 days
Experimental: as §8

[11] = test system: MiaPaCa-2 (pancreatic) xenograft; assay: in vivo activity in MiaPaCa-2 xenograft model; set-up: species or system human; conditions: MiaPaCa-2 (pancreatic) xenograft in nude mice; 10 mg/kg daily po; 21 days following commencement of treatment
Experimental: as §3, §4, §5, §6, §7

[12] = test system: H460a, A549 parental, A549 control, A549 IL6, A549 IL8 and 1:1 mixture xenograft models; assay: Taxol positive drug control across the xenograft models of Example 5; format: in vivo, human; conditions: 30 mg/kg, all xenograft models of FIG. 5
Description: as §2

For `CC(C)(C(=O)NCC(F)(F)C(F)(F)F)C(=O)N[C@@H]1C(=O)Nc2ccccc2-c2ccccc21` [Compound I, 2,2-dimethyl-N-((S)-6-oxo-6,7-dihydro-5H-dibenzo[b,d]azepin-7-yl)-N′-(2,2,3,3,3-pentafluoro-propyl)-malonamide], which TGI [1] is on record?
Its TGI is 8%.

What about the TGI % [2] of the same compound?
The TGI % was 58%.

And the TGI (H460a (NSCLC) xenograft; Example 5, H460a xenograft (high IL6 and IL8), 10 mg/kg once daily, after 21 days)?
Its TGI is 9%.

What about the TGI (H460a (NSCLC) xenograft; Example 6, parental H460a tumors, 10 mg/kg once daily for 21 days) of the same compound?
Its TGI is 5%.

What about the TGI (H460a (NSCLC) xenograft; Example 7, H460a xenograft, Compound I 10 mg/kg once daily, anti-IL8 antibody 20 mg/kg twice weekly) of the same compound?
Its TGI is 10%.

What about the TGI (H460a (NSCLC) xenograft; Example 8, H460a xenograft, Compound I 10 mg/kg once daily, anti-IL6 antibody 20 mg/kg twice weekly) of the same compound?
Its TGI is 43%.

What about the TGI % (H460a (NSCLC) xenograft; H460a (NSCLC) xenograft in nude mice, 10 mg/kg daily po, 21 days following commencement of treatment (Example 1)) of the same compound?
Its TGI % is 8%.

And the TGI [3]?
Its TGI is 32%.

And the TGI % [4]?
The TGI % was 76%.

And the “change in the angiogenic gene profile” value ([5]; H460a xenograft)?
Its value is “little change”.

And the “expression of genes associated with angiogenesis” value ([5]; treated xenografts)?
The value was “reduced expression”.

And the TGI [6]?
The TGI was 61%.

And the TGI % (A549 (NSCLC) xenograft; A549 (NSCLC) xenograft in nude mice, 10 mg/kg daily po, 21 days following commencement of treatment)?
The TGI % was 70%.

What about the TGI (A549 (NSCLC) xenograft; Example 5, parental A549 tumors, 10 mg/kg once daily, after 21 days) of the same compound?
The TGI was 71%.

And the TGI % [7]?
Its TGI % is 82%.

What about the TGI [8] of the same compound?
Its TGI is 45%.

And the “downregulation of Hes1 mRNA” value (Hes1 mRNA; A549 overexpressing IL6)?
Its value is “properly maintained”.

What about the “downregulation of Hes1 mRNA” value (Hes1 mRNA; A549 overexpressing IL8) of the same compound?
The value was “properly maintained”.

And the “downregulation of Hes1 mRNA” value (Hes1 mRNA; LOX cells)?
Its value is “properly maintained”.

And the “downregulation of Hes1 mRNA” value (Hes1 mRNA; U87MG cells)?
Its value is “properly maintained”.

What about the TGI [9] of the same compound?
The TGI was −17%.

What about the TGI % (LOVO (colon) xenograft) of the same compound?
Its TGI % is 83%.

And the TGI % (Calu-6 (NSCLC) xenograft)?
The TGI % was 42%.

And the TGI [10]?
Its TGI is 24%.

And the TGI (LOX (melanoma) xenograft)?
The TGI was 15%.

And the TGI % [11]?
Its TGI % is 53%.

Which “TGI (positive drug control)” value [12] does the source give for `CC(=O)O[C@H]1C(=O)[C@@]2(C)[C@H]([C@H](OC(=O)c3ccccc3)[C@]3(O)C[C@H](OC(=O)[C@H](O)[C@@H](NC(=O)c4ccccc4)c4ccccc4)C(C)=C1C3(C)C)[C@]1(OC(C)=O)CO[C@@H]1C[C@@H]2O` [Taxol®] here?
The value was “consistent TGI across the various models”.
